In US11932621B1, “2-[9-(2-hydroxypyridin-3-yl)-1,8-dioxo-1,2,3,4,5-6,7,8,9,10-decahydroacridin-10-yl]-acetate as an antimicrobial compound” (KING FAISAL UNIVERSITY, priority 2023, dated 2024):

Experiments:
Assay type in all cases: cell-based
Settings in all cases: after 10, 20, 40 and 60 minutes at all dilutions 1:100, 1:200, 1:400, 1:800
Staphylococcus aureus = assay: Antimicrobial screening by agar dilution, Staphylococcus aureus
Protocol: (§1) The antibacterial properties of the synthesized compound 2-[9-(2-hydroxypyridin-3-yl)-1,8-dioxo-1,2,3,4,5,-6,7,8,9,10-decahydroacridin-10-yl]-acetate were studied by the method of agar dilution. Test solutions of each compound was prepared in concentration of 1% using dimethylformamide as a solvent then they are diluted in physiological solution to obtain the final experimental dilutions 1:100, 1:200, 1:400, 1:800. The effect of these substances are compared with furacillin in a controllable study. The testing microbes used were gram positive bacteria Staphylococcus aureus, gram negative bacteria Pseudomonas aeruginosa and Escherichia coli and Candida albicans fungus. The experiments used for this survey were meat-pentonlu agar (EPA) for cultivation of bacteria and Saburo environment for the fungus. Each experiment used 1 mL of test solution on each plate […]. Two drops of emulsified with microbes feel were added. All experimental samples were taken from the agar after 10, 20, 40, 60 minutes in the environment on the basis of Patrk planted. The bacteria were cultivated at a temperature of 37° C. for 1 day and the mushroom was kept in a thermostat for […] at a temperature of 28° C. Then results were checked.

Escherichia coli = assay: Antimicrobial screening by agar dilution, Escherichia coli
Protocol: as §1

Pseudomonas aeruginosa = assay: Antimicrobial screening by agar dilution, Pseudomonas aeruginosa
Protocol: as §1

Candida albicans = assay: Antimicrobial screening by agar dilution, Candida albicans
Protocol: as §1

Measured: inhibition activity

CCOC(=O)CN1C2=C(C(=O)CCC2)C(c2cccnc2O)C2=C1CCCC2=O [2-[9-(2-hydroxypyridin-3-yl)-1,8-dioxo-1,2,3,4,5,-6,7,8,9,10-decahydroacridin-10-yl]-acetate]
highest inhibition activity: all assays above
